Data on one compound can be found in PMC7692634, “Structural Basis of Inhibition of the Pioneer Transcription Factor NF-Y by Suramin” (Cells, 2020).

Test [1] concerns the target T1, NF-Yt (NF-Ymd, minimal domain NF-Y trimer) (Homo sapiens, UniProt P25208+Q13952).
T1 construct: gene NFYB; minimal domains NF-YB 49-141, NF-YC 27-120, NF-YA 262-332 with C-terminal 6His (thrombin-cleaved); coexpressed in E. coli BL21(DE3); with Nuclear transcription factor Y subunit alpha
The experiment in a line: STD NMR; EMSA inhibition of DNA binding. The note with it: STD NMR: 25 µM protein, 1 mM suramin, 10 mM Tris-DCl pH 8, 150 mM NaCl, 25 °C; EMSA: 40 nM protein, 20 nM HSP70 CCAAT probe, pH 7.5, 30 °C.

Test [2] has as its target T2, NF-Yd (NF-YB/NF-YC histone fold domain dimer, YB/YCmd) (Homo sapiens, UniProt P25208+Q13952).
T2 construct: gene NFYB; minimal histone fold domains, NF-YB aa 49-141 with N-terminal 6His (thrombin-cleaved), NF-YC aa 27-120; coexpressed in E. coli BL21(DE3)
T2 sequence (P25208 51-143): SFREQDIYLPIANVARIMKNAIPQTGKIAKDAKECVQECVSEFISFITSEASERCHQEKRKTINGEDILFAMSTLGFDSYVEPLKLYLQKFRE
T2 sequence (Q13952 27-120): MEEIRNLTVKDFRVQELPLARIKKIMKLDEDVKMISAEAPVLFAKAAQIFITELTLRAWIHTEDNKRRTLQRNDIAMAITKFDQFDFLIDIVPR
The experiment in a line: ITC. The format is binding.

Test [3] addresses T3, NF-Yd/YA (reconstituted NF-Y trimer with YA3) (Homo sapiens, UniProt P25208+Q13952).
T3 construct: gene NFYB; NF-Yd (NF-YB 49-141/NF-YC 27-120, His-tag cut) mixed with separately purified NF-YA aa 239-347, C-terminal His-tag; E. coli BL21(DE3); with Nuclear transcription factor Y subunit alpha
The test is described as follows: EMSA inhibition of DNA binding. The note with it: 40 nM protein, 20 nM Cy5 HSP70 CCAAT probe, pH 7.5, 5 mM MgCl2, 30 °C; suramin 50 and 100 µM.

As a reminder, the Kd is the free concentration of one partner at which half of the binding sites on the other are occupied at equilibrium, for simple one-to-one binding. Higher therefore signals weaker binding.

T1 sequence (P23511 262-332 partner, one chain of several): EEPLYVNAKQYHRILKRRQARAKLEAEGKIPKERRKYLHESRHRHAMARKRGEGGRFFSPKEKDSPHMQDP
T3 sequence (P23511 239-347 partner, one chain of several): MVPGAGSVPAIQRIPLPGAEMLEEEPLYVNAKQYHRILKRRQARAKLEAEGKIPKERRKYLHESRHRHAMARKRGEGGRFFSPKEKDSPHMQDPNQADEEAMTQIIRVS

For `Cc1ccc(C(=O)Nc2ccc(S(=O)(=O)O)c3cc(S(=O)(=O)O)cc(S(=O)(=O)O)c23)cc1NC(=O)c1cccc(NC(=O)Nc2cccc(C(=O)Nc3cc(C(=O)Nc4ccc(S(=O)(=O)O)c5cc(S(=O)(=O)O)cc(S(=O)(=O)O)c45)ccc3C)c2)c1` [suramin], the “STD NMR; EMSA inhibition of DNA binding” value in test [1] is “demonstrates the interaction of the compound with both the dimer and the trimer”. In test [2], this compound returned a Kd of 2900 ± 700 nM. Moreover, in test [3], the “EMSA inhibition of DNA binding” value was “suramin addition substantially decreased the formation of NF-Y-bound DNA complexes, in a dose-dependent manner”.
